Source: PubChem BioAssay (NCI)
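Method: 48-hour compound exposure of cells in 96-well plates, five concentrations, linear interpolation of endpoints. GI50: concentration for 50% inhibition of growth. At the TGI there is no net growth.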

Key:
Experiment in all cases: NCI anticancer screen, dose series, 48 h
[1] = tested on: HOP-92 NSCLC
[2] = tested on: OVCAR-4 ovarian
[3] = tested on: HCT-116 colon
[4] = tested on: NCI-H460 lung
[5] = tested on: TK-10 renal
[6] = tested on: HCC-2998 colon
[7] = tested on: HOP-62 NSCLC
[8] = tested on: UACC-257 melanoma
[9] = tested on: LOX IMVI melanoma
[10] = tested on: RPMI-8226 leukemia
[11] = tested on: OVCAR-5 ovarian
[12] = tested on: COLO 205 colon
[13] = tested on: MALME-3M melanoma
[14] = tested on: MOLT-4 leukemia
[15] = tested on: MDA-MB-231 breast
[16] = tested on: M14 melanoma
[17] = tested on: A498 renal
[18] = tested on: SW-620 colon
[19] = tested on: SK-MEL-5 melanoma
[20] = tested on: U251 CNS
[21] = tested on: SF-268 CNS
[22] = tested on: ACHN renal
[23] = tested on: OVCAR-8 ovarian
[24] = tested on: SK-MEL-2 melanoma
[25] = tested on: SK-OV-3 ovarian
[26] = tested on: DU-145 prostate
[27] = tested on: UO-31 renal
[28] = tested on: SNB-75 CNS
[29] = tested on: MCF7 breast
[30] = tested on: CCRF-CEM leukemia
[31] = tested on: T-47D breast
[32] = tested on: SF-539 CNS
[33] = tested on: K-562 leukemia
[34] = tested on: NCI-H226 lung
[35] = tested on: 786-0 renal
[36] = tested on: KM12 colon
[37] = tested on: PC-3 prostate
[38] = tested on: NCI-H23 lung
[39] = tested on: HT29 colon
[40] = tested on: IGROV1 ovarian
[41] = tested on: SN12C renal
[42] = tested on: HCT-15 colon
[43] = tested on: HS 578T breast
[44] = tested on: UACC-62 melanoma
[45] = tested on: A549 NSCLC
[46] = tested on: CAKI-1 renal
[47] = tested on: SR leukemia
[48] = tested on: SK-MEL-28 melanoma
[49] = tested on: SNB-19 CNS
[50] = tested on: RXF 393 renal
[51] = tested on: EKVX NSCLC
[52] = tested on: SF-295 CNS
[53] = tested on: OVCAR-3 ovarian
[54] = tested on: MDA-MB-435
[55] = tested on: HL-60(TB) leukemia
[56] = tested on: NCI/ADR-RES ovarian
[57] = tested on: NCI-H522 lung

Compound C#Cc1cc2c(N)c(C(=O)c3cc(OC)c(OC)c(OC)c3)[nH]c2cc1OC has a GI50 [1] of 0.334 µM, a TGI [1] of 37.7 µM and a GI50 [2] of 0.987 µM. The TGI [2] was greater than 100 µM, the GI50 [3] was 0.431 µM and the TGI [3] was greater than 100 µM. It also gave a GI50 [4] of 0.408 µM, a TGI [4] greater than 100 µM and a GI50 [5] of 17.8 µM. It also gave a TGI [5] greater than 100 µM, a GI50 [6] of 42.5 µM and a TGI [6] greater than 100 µM. For the same compound, the GI50 [7] was 0.58 µM, the TGI [7] was greater than 100 µM and the GI50 [8] was 0.532 µM. It also gave a TGI [8] greater than 100 µM, a GI50 [9] of 0.656 µM and a TGI [9] greater than 100 µM. For the same compound, the GI50 [10] was 1.84 µM, the TGI [10] was 20 µM and the GI50 [11] was 3.79 µM. For the same compound, the TGI [11] was greater than 100 µM, the GI50 [12] was 0.38 µM and the TGI [12] was 2.27 µM. For the same compound, the GI50 [13] was 0.434 µM, the TGI [13] was greater than 100 µM and the GI50 [14] was 0.903 µM. The TGI [14] was 95.2 µM, the GI50 [15] was 5.13 µM and the TGI [15] was greater than 100 µM. It also gave a GI50 [16] of 0.521 µM, a TGI [16] greater than 100 µM and a GI50 [17] of 0.487 µM. For the same compound, the TGI [17] was 16.9 µM, the GI50 [18] was 0.396 µM and the TGI [18] was greater than 100 µM. For the same compound, the GI50 [19] was 0.434 µM, the TGI [19] was 12.9 µM and the GI50 [20] was 0.691 µM. For the same compound, the TGI [20] was greater than 100 µM, the GI50 [21] was 14.1 µM and the TGI [21] was greater than 100 µM. It also gave a GI50 [22] of 0.574 µM, a TGI [22] greater than 100 µM and a GI50 [23] of 2.48 µM. It also gave a TGI [23] greater than 100 µM, a GI50 [24] of 0.572 µM and a TGI [24] of 62.9 µM. For the same compound, the GI50 [25] was 0.517 µM, the TGI [25] was greater than 100 µM and the GI50 [26] was 1.2 µM. The TGI [26] was greater than 100 µM, the GI50 [27] was 0.722 µM and the TGI [27] was 56.1 µM. The GI50 [28] was 0.208 µM, the TGI [28] was 1.18 µM and the GI50 [29] was 0.325 µM. It also gave a TGI [29] greater than 100 µM, a GI50 [30] of 0.63 µM and a TGI [30] greater than 100 µM. The GI50 [31] was 0.449 µM, the TGI [31] was 54.7 µM and the GI50 [32] was 0.28 µM. For the same compound, the TGI [32] was 1.6 µM, the GI50 [33] was 0.462 µM and the TGI [33] was greater than 100 µM. For the same compound, the GI50 [34] was 5.74 µM, the TGI [34] was greater than 100 µM and the GI50 [35] was 0.542 µM. It also gave a TGI [35] greater than 100 µM, a GI50 [36] of 0.412 µM and a TGI [36] greater than 100 µM. The GI50 [37] was 0.45 µM, the TGI [37] was greater than 100 µM and the GI50 [38] was 1.94 µM. It also gave a TGI [38] greater than 100 µM, a GI50 [39] of 0.374 µM and a TGI [39] of 76.2 µM. For the same compound, the GI50 [40] was 2.05 µM, the TGI [40] was 74.9 µM and the GI50 [41] was 11.2 µM. It also gave a TGI [41] greater than 100 µM, a GI50 [42] of 0.46 µM and a TGI [42] greater than 100 µM. The GI50 [43] was 1.34 µM, the TGI [43] was greater than 100 µM and the GI50 [44] was 2.77 µM. For the same compound, the TGI [44] was greater than 100 µM, the GI50 [45] was 0.729 µM and the TGI [45] was greater than 100 µM. The GI50 [46] was 0.573 µM, the TGI [46] was greater than 100 µM and the GI50 [47] was 0.381 µM. The TGI [47] was greater than 100 µM, the GI50 [48] was 19.3 µM and the TGI [48] was greater than 100 µM. The GI50 [49] was 0.73 µM and the TGI [49] was greater than 100 µM.

COc1cc2c(cc1OC)-c1ncc3cc4c(cc3c1C2)OCO4 was tested, and the GI50 [1] was greater than 100 µM, the TGI [1] was greater than 100 µM and the GI50 [2] was 57.3 µM. For the same compound, the TGI [2] was greater than 100 µM, the GI50 [3] was 11.1 µM and the TGI [3] was 23 µM. For the same compound, the GI50 [4] was 13 µM, the TGI [4] was 30.5 µM and the GI50 [5] was 43.2 µM. The TGI [5] was greater than 100 µM, the GI50 [8] was 48.4 µM and the TGI [8] was greater than 100 µM. The GI50 [9] was greater than 100 µM, the TGI [9] was greater than 100 µM and the GI50 [50] was 50.2 µM. The TGI [50] was greater than 100 µM, the GI50 [10] was 5.57 µM and the TGI [10] was greater than 100 µM. It also gave a GI50 [11] of 39.6 µM, a TGI [11] of 97 µM and a GI50 [12] of 61.1 µM. It also gave a TGI [12] greater than 100 µM, a GI50 [51] of 22 µM and a TGI [51] of 72.3 µM. For the same compound, the GI50 [14] was 4.14 µM, the TGI [14] was 20.4 µM and the GI50 [15] was greater than 100 µM. The TGI [15] was greater than 100 µM, the GI50 [16] was 19.6 µM and the TGI [16] was 82.5 µM. For the same compound, the GI50 [18] was 34.9 µM, the TGI [18] was greater than 100 µM and the GI50 [19] was 7.65 µM. The TGI [19] was greater than 100 µM, the GI50 [20] was 41.4 µM and the TGI [20] was greater than 100 µM. For the same compound, the GI50 [22] was greater than 100 µM, the TGI [22] was greater than 100 µM and the GI50 [23] was 47.3 µM. The TGI [23] was greater than 100 µM, the GI50 [24] was 32.2 µM and the TGI [24] was 75.8 µM. It also gave a GI50 [25] of 53 µM, a TGI [25] greater than 100 µM and a GI50 [52] of 46.2 µM. It also gave a TGI [52] greater than 100 µM, a GI50 [26] of 25.3 µM and a TGI [26] of 53.6 µM. The GI50 [27] was 23.1 µM, the TGI [27] was 63.7 µM and the GI50 [28] was 64.1 µM. For the same compound, the TGI [28] was greater than 100 µM, the GI50 [29] was 12.4 µM and the TGI [29] was 30.6 µM. The GI50 [30] was 6.36 µM, the TGI [30] was 21.4 µM and the GI50 [31] was 71.2 µM. The TGI [31] was greater than 100 µM, the GI50 [32] was 23.4 µM and the TGI [32] was 56.1 µM. For the same compound, the GI50 [53] was 61.2 µM, the TGI [53] was greater than 100 µM and the GI50 [33] was 19 µM. It also gave a TGI [33] greater than 100 µM, a GI50 [35] of 18.3 µM and a TGI [35] of 45.5 µM. The GI50 [36] was 38.1 µM, the TGI [36] was greater than 100 µM and the GI50 [37] was greater than 100 µM. For the same compound, the TGI [37] was greater than 100 µM, the GI50 [38] was 20.3 µM and the TGI [38] was 41.7 µM. For the same compound, the GI50 [54] was 63.4 µM, the TGI [54] was greater than 100 µM and the GI50 [39] was greater than 100 µM. It also gave a TGI [39] greater than 100 µM, a GI50 [40] of 25 µM and a TGI [40] of 59.6 µM. For the same compound, the GI50 [55] was 10.3 µM, the TGI [55] was 22 µM and the GI50 [41] was greater than 100 µM. It also gave a TGI [41] greater than 100 µM, a GI50 [42] greater than 100 µM and a TGI [42] greater than 100 µM. It also gave a GI50 [56] of 24.8 µM, a TGI [56] of 49.6 µM and a GI50 [57] of 13.2 µM. For the same compound, the TGI [57] was 48.4 µM, the GI50 [44] was greater than 100 µM and the TGI [44] was greater than 100 µM. The GI50 [45] was 34.2 µM, the TGI [45] was greater than 100 µM and the GI50 [46] was 38.5 µM. It also gave a TGI [46] greater than 100 µM, a GI50 [47] of 2.7 µM and a TGI [47] of 15.3 µM. The GI50 [48] was greater than 100 µM, the TGI [48] was greater than 100 µM and the GI50 [49] was 60 µM. The TGI [49] was greater than 100 µM.
